# Measured values taken from patent US6936607B2, “2,4,6-Triaminopyrimidines for the treatment of depression and/or anxiety” (H. Lunobeck A/S, priority 2002, dated 2005).
# Target: T1, human GalR3 receptor (Homo sapiens, UniProt O60755)
# T1 construct: expressed in transfected cells; host or cells: mouse fibroblast LM(tk-) cells, stably transfected; membranes
# T1 sequence (O60755 1-368): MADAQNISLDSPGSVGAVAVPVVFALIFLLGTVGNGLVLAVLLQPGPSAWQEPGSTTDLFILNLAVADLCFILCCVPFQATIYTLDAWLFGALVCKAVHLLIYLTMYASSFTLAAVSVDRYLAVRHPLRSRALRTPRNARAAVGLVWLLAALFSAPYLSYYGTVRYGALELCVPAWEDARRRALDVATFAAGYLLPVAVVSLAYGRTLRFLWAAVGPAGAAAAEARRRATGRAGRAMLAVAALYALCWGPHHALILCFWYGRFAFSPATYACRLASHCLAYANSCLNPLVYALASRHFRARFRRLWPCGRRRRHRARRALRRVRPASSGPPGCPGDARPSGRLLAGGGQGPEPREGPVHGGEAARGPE
# Assay: Radioligand binding assay at cloned human GalR3 receptor
# Conditions: Binding Data; membranes from LM(tk-) cells stably transfected with the human GalR3 receptor
# Procedure: LM(tk-) cells were stably transfected with the human GalR3 receptor. cDNAs for the human and rat GalR3 receptors were transfected with a G-418 resistant gene into the mouse fibroblast LM(tk-) cell line by a calcium phosphate transfection method (Cullen, 1987). Membranes were harvested from stably transfected LM(tk-) cells. Adherent cells were washed twice in ice-cold phosphate buffered saline (138 mM NaCl, 8.1 mM Na2HPO4, 2.5 mM KCl, 1.2 mM KH2PO4, 0.9 mM CaCl2, 0.5 mM MgCl2, pH 7.4) and lysed by sonication in ice-cold sonication buffer (20 mM Tris-HCl, 5 mM EDTA, pH 7.7). Large particles and debris were cleared by low speed centrifugation (200×g, 5 min, 4° C.). Membranes were collected from the supernatant fraction by centrifugation (32,000×g, 18 min, 4° C.), washed with ice-cold hypotonic buffer, and collected again by centrifugation (32,000×g, 18 min, 4° C.). The final membrane pellet was resuspended by sonication into a small volume of ice-cold binding buffer (˜1 ml for every 5 plates: 10 mM NaCl, 20 mM HEPES, 0.22 mM KH2PO4, 1.26 mM CaCl2, 0.81 mM MgSO4, pH 7.4). Protein concentration was measured by the Bradford method (Bradford, 1976) using Bio-Rad Reagent, with bovine serum albumin as a standard. Membranes were held on ice for up to one hour and used fresh, or flash frozen and stored in liquid nitrogen. Membranes were prepared similarly from CHO cells. The methods to obtain the cDNA of the receptors, express said receptors in heterologous systems, and carry out assays to determine binding affinity are described as follows. Binding assays were performed according to the following published method: human GALR3 (PCT International Publication No. WO 02/060392).
row,Ki,SMILES
1,0.097 µM,"Cc1ccc(Nc2cc(N(C)C)nc(N3CCN(c4cccc(Cl)c4)CC3)n2)cc1C [Example 32, 2-[4-(3-CHLOROPHENYL)-1-PIPERAZINYL]-N^4-(3,4-DIMETHYLPHENYL)-N^6,N^6-DIMETHYL-4,6-PYRIMIDINEDIAMINE]"
2,0.028 µM,"CN(C)c1cc(Nc2cccc(OCc3ccccc3)c2)nc(N2CCN(c3cccc(Cl)c3)CC2)n1 [Example 27, N^4-[3-(BENZYLOXY)PHENYL]-2-[4-(3-CHLOROPHENYL)-1-PIPERAZINYL]-N^6,N^6-DIMETHYL-4,6-PYRIMIDINEDIAMINE]"
3,0.314 µM,"CCN(CC)c1cc(C)ccc1Nc1cc(N(C)C)nc(N2CCN(c3ccccn3)CC2)n1 [Example 44, N^4-[2-(DIETHYLAMINO)-4-METHYLPHENYL]-N^6,N^6-DIMETHYL-2-[4-(2-PYRIDINYL)-1-PIPERAZINYL]-4,6-PYRIMIDINEDIAMINE]"
4,0.063 µM,"CN(C)c1cc(Nc2ccc(Cl)c(Cl)c2)nc(N2CCN(c3ccccc3Cl)CC2)n1 [Example 21, 2-[4-(2-CHLOROPHENYL)-1-PIPERAZINYL]-N^4-(3,4-DICHLOROPHENYL)-N^6,N^6-DIMETHYL-4,6-PYRIMIDINEDIAMINE]"
5,0.351 µM,"CCn1ccc2ccc(Nc3cc(N(C)C)nc(N4CCN(c5ccccn5)CC4)n3)cc21 [Example 47, N^4-(1-ETHYL-1H-INDOL-6-YL)-N^6,N^6-DIMETHYL-2-[4-(2-PYRIDINYL)-1-PIPERAZINYL]-4,6-PYRIMIDINEDIAMINE]"
6,0.093 µM,"COc1cccc(Nc2cc(N(C)C)nc(N3CCN(c4ccccc4F)CC3)n2)c1 [Example 13, 2-[4-(2-FLUOROPHENYL)-1-PIPERAZINYL]-N^4-(3-METHOXYPHENYL)-N^6,N^6-DIMETHYL-4,6-PYRIMIDINEDIAMINE]"
7,0.052 µM,"CN(C)c1cc(Nc2ccc3c(c2)CCC3)nc(N2CCN(c3ccc(Cl)cc3)CC2)n1 [Example 6, 2-[4-(4-CHLOROPHENYL)-1-PIPERAZINYL]-N^4-(2,3-DIHYDRO-1H-INDEN-5-YL)-N^6,N^6-DIMETHYL-4,6-PYRIMIDINEDIAMINE]"
8,0.042 µM,"CN(C)c1cc(Nc2cccc(OCc3ccccc3)c2)nc(N(C)CC2CCCO2)n1 (stereo not shown) [Example 35, N^4-[3-(BENZYLOXY)PHENYL]-N^2,N^6,N^6-TRIMETHYL-N^2-(TETRAHYDRO-2-FURANYLMETHYL)-2,4,6-PYRIMIDINETRIAMINE]"
9,0.15 µM,"CN(C)c1cc(Nc2ccc(Cl)c(Cl)c2)nc(N2CCN(c3ccc(Cl)cc3)CC2)n1 [Example 54, 2-[4-(4-CHLOROPHENYL)-1-PIPERAZINYL]-N-(3,4-DICHLOROPHENYL)-N^6,N^6-DIMETHYL-4,6-PYRIMIDINEDIAMINE]"
10,0.091 µM,"CN(C)c1cc(Nc2cccc(OCc3ccccc3)c2)nc(N2CCc3ccccc32)n1 [Example 42, N^4-[3-(BENZYLOXY)PHENYL]-2-(2,3-DIHYDRO-1H-INDOL-1-YL)-N^6,N^6-DIMETHYL-4,6-PYRIMIDINEDIAMINE]"
11,0.065 µM,"Cc1ccc(Nc2cc(N(C)C)nc(N3CCN(c4cccc(Cl)c4)CC3)n2)cc1 [Example 1, 2-[4-(3-CHLOROPHENYL)-1-PIPERAZINYL]-N^4,N^4-DIMETHYL-N^6-(4-METHYLPHENYL)-4,6-PYRIMIDINEDIAMINE]"
12,0.506 µM,"Cc1ccc(Nc2cc(N(C)C)nc(N3CCN(c4ccccn4)CC3)n2)c(NC(C)C)c1 [Example 45, N^4-[2-(ISOPROPYLAMINO)-4-METHYLPHENYL]-N^6,N^6-DIMETHYL-2-[4-(2-PYRIDINYL)-1-PIPERAZINYL]-4,6-PYRIMIDINEDIAMINE]"
13,0.118 µM,"Cc1ccc(Nc2cc(N(C)C)nc(N3CCN(c4ccccc4F)CC3)n2)cc1C [Example 19, N^4-(3,4-DIMETHYLPHENYL)-2-[4-(2-FLUOROPHENYL)-1-PIPERAZINYL]-N^6,N^6-DIMETHYL-4,6-PYRIMIDINEDIAMINE]"
14,0.059 µM,"CN(C)c1cc(Nc2cccc(OCc3ccccc3)c2)nc(N2CCCC2)n1 [Example 37, N^4-[3-(BENZYLOXY)PHENYL]-N^6,N^6-DIMETHYL-2-(1-PYRROLIDINYL)-4,6-PYRIMIDINEDIAMINE]"
15,0.241 µM,"CN(C)c1cc(Nc2ccc(C3CCCCC3)cc2)nc(N2CCN(c3cccc(Cl)c3)CC2)n1 [Example 9, 2-[4-(3-CHLOROPHENYL)-1-PIPERAZINYL]-N^4-(4-CYCLOHEXYLPHENYL)-N^6,N^6-DIMETHYL-4,6-PYRIMIDINEDIAMINE]"
16,0.026 µM,"CN(C)c1cc(Nc2cccc(OCc3ccccc3)c2)nc(N2CCN(c3ccc(Cl)cc3)CC2)n1 [Example 31, N^4-[3-(BENZYLOXY)PHENYL]-2-[4-(4-CHLOROPHENYL)-1-PIPERAZINYL]-N^6,N^6-DIMETHYL-4,6-PYRIMIDINEDIAMINE]"
17,0.264 µM,"Cc1ccc(Nc2cc(N(C)C)nc(N3CCN(c4c(C(F)(F)F)ccc[n+]4[O-])CC3)n2)cc1 [Example 46, N^4,N^4-DIMETHYL-N^6-(4-METHYLPHENYL)-2-{4-[l-OXIDO-3-(TRIFLUOROMETHYL)-2-PYRIDINYL]-1-PIPERAZINYL}-4,6-PYRIMIDINEDIAMINE]"
18,0.015 µM,"CC1CC(C)CN(c2nc(Nc3cccc(OCc4ccccc4)c3)cc(N(C)C)n2)C1 (stereo not shown) [Example 38, N^4-[3-(BENZYLOXY)PHENYL]-2-(3,5-DIMETHYL-1-PIPERIDINYL)-N^6,N^6-DIMETHYL-4,6-PYRIMIDINEDIAMINE]"
19,0.032 µM,"C[C@@H]1CN(c2nc(Nc3cccc(OCc4ccccc4)c3)cc(N(C)C)n2)C[C@H](C)O1 [Example 34, N^4-[3-(BENZYLOXY)PHENYL]-2-[CIS-2,6-DIMETHYLMORPHOLINYL]-N^6,N^6-DIMETHYL-4,6-PYRIMIDINEDIAMINE]"
20,0.047 µM,"CN(C)c1cc(Nc2ccc(C3CCCCC3)cc2)nc(N2CCN(c3ccc(Cl)cc3)CC2)n1 [Example 10, 2-[4-(4-CHLOROPHENYL)-1-PIPERAZINYL]-N^4-(4-CYCLOHEXYLPHENYL)-N^6,N^6-DIMETHYL-4,6-PYRIMIDINEDIAMINE]"
21,0.075 µM,"CN(C)c1cc(Nc2ccc3c(c2)CCC3)nc(N2CCN(c3ccccc3F)CC2)n1 [Example 12, N^4-(2,3-DIHYDRO-1H-INDEN-5-YL)-2-[4-(2-FLUOROPHENYL)-1-PIPERAZINYL]-N^6,N^6-DIMETHYL-4,6-PYRIMIDINEDIAMINE]"
22,0.014 µM,"CN(C)c1cc(Nc2cccc(OCc3ccccc3)c2)nc(N2CCN(c3ncccn3)CC2)n1 [Example 41, N-[3-(BENZYLOXY)PHENYL]-N^6,N^6-DIMETHYL-2-[4-(2-PYRIMIDINYL)-1-PIPERAZINYL]-4,6-PYRIMIDINEDIAMINE]"
23,0.029 µM,"Cc1ccc(Nc2cc(N(C)C)nc(N3CCN(c4ccccc4Cl)CC3)n2)cc1 [Example 3, 2-[4-(2-CHLOROPHENYL)-1-PIPERAZINYL]-N^4,N^4-DIMETHYL-N^6-(4-METHYLPHENYL)-4,6-PYRIMIDINEDIAMINE]"
24,0.036 µM,"O=C1CCN(c2cc(Nc3ccc(Cl)c(Cl)c3)nc(N3CCN(Cc4ccccc4)CC3)n2)CC1 [Example 53, 1-[2-(4-BENZYL-1-PIPERAZINYL)-6-(3,4-DICHLOROANILINO)-4-PYRIMIDINYL]-4-PIPERIDINONE]"
25,0.02 µM,"CN(C)c1cc(Nc2cccc(OCc3ccccc3)c2)nc(N2CCN(c3ccccc3F)CC2)n1 [Example 24, N^4-[3-(BENZYLOXY)PHENYL]-2-[4-(2-FLUOROPHENYL)-1-PIPERAZINYL]-N^6,N^6-DIMETHYL-4,6-PYRIMIDINEDIAMINE]"
